According to publication PMC7703574 (Journal of medicinal chemistry, 2020):

Legend:
HIV-1 Env pseudoviruses = details: despite low nanomolar potency; cited from earlier work
[1] = phosphate buffer, pH7.4; cited from earlier work
Caco-2 cell monolayer = details: no inhibitor; cited from earlier work
[2] = Cytotoxicity in TZM-bl cells; format: cell-based; details: human
U87-CD4-CXCR4 cells = experiment: Cytotoxicity in U87-CD4-CXCR4 cells; format: cell-based; details: at the doses used for this assay
Cf2Th-CCR5 cells = experiment: Cytotoxicity in Cf2Th-CCR5 cells; format: cell-based
CYP450 enzymes = experiment: Cytochrome P450 inhibition, set of CYP450 enzymes; format: in vitro ADME
CYP3A = experiment: Cytochrome P450 inhibition CYP3A; format: in vitro ADME; details: human
VSV-G pseudovirus = format: cell-based; details: control for HIV-1 specificity
[3] = Metabolic stability in human liver microsomes; format: in vitro ADME

COc1ccnc2[nH]cc(C(=O)C(=O)N3CCN(C(=O)c4ccccc4)C[C@H]3C)c12 [BMS-378806, 4-benzoyl-1-[(4-methoxy-1H-pyrrolo-[2,3-b]pyridin-3-yl)oxoacetyl]-2-(R)-methylpiperazine]
activity against A, C, and D subtypes (HIV-1 Env pseudoviruses): weaker activity

COc1cnc(-n2cnc(C)n2)c2[nH]cc(C(=O)C(=O)N3CCN(C(=O)c4ccccc4)CC3)c12 [BMS-626529]
solubility [1]: 47 to 237 µg/mL | Caco-2 permeability mean Papp A-to-B (Caco-2 cell monolayer): 9.27 ×10⁻⁶ cm/s | Caco-2 permeability mean Papp B-to-A (Caco-2 cell monolayer): 32 ×10⁻⁶ cm/s

NC[C@H](NC(=O)c1ccc(-c2ccc(C(F)(F)F)cn2)[nH]1)c1ncc(CO)s1 [Compound 6, N-(2-Amino-1-(5-(hydroxymethyl)thiazol-2-yl)ethyl)-5-(5-(trifluoromethyl)pyridin-2-yl)-1H-pyrrole-2-carboxamide]
CC50 at 3 d [2]: > 122 µM

Cc1cc(-c2ccc(C(F)(F)F)cn2)[nH]c1C(=O)N[C@@H](CN)c1ncc(CO)s1 [Compound 8, N-(2-Amino-1-(5-(hydroxymethyl)thiazol-2-yl)ethyl)-3-methyl-5-(5-(trifluoromethyl)pyridin-2-yl)-1H-pyrrole-2-carboxamide]
toxicity in the U87-CD4-CXCR4 cell line (U87-CD4-CXCR4 cells): did not induce toxicity | toxicity at the doses used in this assay (Cf2Th-CCR5 cells): did not show toxicity | inhibition of CYP1A2, CYP2B6, and CYP3A (CYP450 enzymes; at greater than 50 μM dose levels): no inhibition | inhibition of the other CYP450 enzymes (CYP450 enzymes; at the 100 μM dose level): No inhibitory activities | IC50 (CYP3A; probe midazolam): > 100 µM | IC50 (CYP3A; probe testosterone): > 62.2 µM | activity against the pseudovirus VSV-G (VSV-G pseudovirus): poorly active | microsomal CLint [3]: < 11.6 µL/min/mg

NC[C@@H](NC(=O)c1ccc(-c2ccc(C(F)(F)F)cn2)[nH]1)c1ncc(C(O)CO)s1 (stereo partly shown) [Compound 13, N-(2-Amino-1-(5-(1,2-dihydroxyethyl)thiazol-2-yl)ethyl)-5-(5-(trifluoromethyl)pyridin-2-yl)-1H-pyrrole-2-carboxamide]
CC50 at 3 d [2]: > 113 µM

NC[C@H](NC(=O)c1ccc(-c2ccc(Cl)cn2)[nH]1)c1nc(CO)cs1 [Compound 16, N-(2-Amino-1-(4-(hydroxymethyl)thiazol-2-yl)ethyl)-5-(5-chloropyridin-2-yl)-1H-pyrrole-2-carboxamide]
CC50 at 3 d [2]: > 132 µM

NC[C@@H](NC(=O)c1ccc(-c2ccc(F)cn2)[nH]1)c1nc(CO)cs1 [Compound 17, N-(2-Amino-1-(4-(hydroxymethyl)thiazol-2-yl)ethyl)-5-(5-fluoropyridin-2-yl)-1H-pyrrole-2-carboxamide]
CC50 at 3 d [2]: > 138 µM

Cc1ccc(-c2ccc(C(=O)N[C@H](CN)c3nc(CO)cs3)[nH]2)nc1 [Compound 19, N-(2-Amino-1-(4-(hydroxymethyl)thiazol-2-yl)ethyl)-5-(5-methylpyridin-2-yl)-1H-pyrrole-2-carboxamide]
CC50 at 3 d [2]: > 140 µM

NC[C@@H](NC(=O)c1ccc(-c2ccc(C(F)(F)F)cn2)[nH]1)c1nc(C(O)CO)cs1 (stereo partly shown) [Compound 29, N-(2-Amino-1-(4-(1,2-dihydroxyethyl)thiazol-2-yl)ethyl)-5-(5-(trifluoromethyl)pyridin-2-yl)-1H-pyrrole-2-carboxamide]
CC50 at 3 d [2]: > 113 µM

Cc1cc(-c2ccc(C(F)(F)F)cn2)[nH]c1C(=O)N[C@H](CN)c1nc(CO)cs1 [Compound 33, N-(2-Amino-1-(4-(hydroxymethyl)thiazol-2-yl)ethyl)-3-methyl-5-(5-(trifluoromethyl)pyridin-2-yl)-1H-pyrrole-2-carboxamide]
CC50 at 72 h [2]: 85 ± 3 µM | toxicity in the U87-CD4-CXCR4 cell line (U87-CD4-CXCR4 cells): did not induce toxicity | toxicity at the doses used in this assay (Cf2Th-CCR5 cells): did not show toxicity | activity against the pseudovirus VSV-G (VSV-G pseudovirus): poorly active

NC[C@H](NC(=O)c1ccc(-c2ccc(C(F)(F)F)cn2)[nH]1)c1nc(CO)c(CO)s1 [Compound 36, N-(2-Amino-1-(4,5-bis(hydroxymethyl)thiazol-2-yl)ethyl)-5-(5-(trifluoromethyl)pyridin-2-yl)-1H-pyrrole-2-carboxamide]
CC50 at 3 d [2]: > 113 µM

NC[C@@H](NC(=O)c1ccc(-c2ccc(Cl)nc2)[nH]1)c1nc(CO)cs1 [Compound 39, N-(2-Amino-1-(4-(hydroxymethyl)thiazol-2-yl)ethyl)-5-(6-chloropyridin-3-yl)-1H-pyrrole-2-carboxamide]
CC50 at 3 d [2]: > 132 µM

NC[C@@H](NC(=O)c1ccc(-c2ccc(C(F)(F)F)nc2)[nH]1)c1nc(CO)cs1 [Compound 41, N-(2-Amino-1-(4-(hydroxymethyl)thiazol-2-yl)ethyl)-5-(6-(trifluoromethyl)pyridin-3-yl)-1H-pyrrole-2-carboxamide]
CC50 at 3 d [2]: > 122 µM

NC[C@H](NC(=O)c1ccc(-c2ccc(C(F)(F)F)nn2)[nH]1)c1nc(CO)cs1 [Compound 44, N-(2-Amino-1-(4-(hydroxymethyl)thiazol-2-yl)ethyl)-5-(6-(trifluoromethyl)pyridazin-3-yl)-1H-pyrrole-2-carboxamide]
CC50 at 3 d [2]: > 73 µM

NC[C@@H](NC(=O)c1ccc(-c2ncc(Cl)cn2)[nH]1)c1nc(CO)cs1 [Compound 45, N-(2-Amino-1-(4-(hydroxymethyl)thiazol-2-yl)ethyl)-5-(5-chloropyrimidin-2-yl)-1H-pyrrole-2-carboxamide]
CC50 at 3 d [2]: > 66 µM

COc1cc(-c2ccc(C(=O)N[C@H](CN)c3nc(CO)cs3)[nH]2)ccn1 [Compound 47, N-(2-Amino-1-(4-(hydroxymethyl)thiazol-2-yl)ethyl)-5-(2-methoxypyridin-4-yl)-1H-pyrrole-2-carboxamide]
CC50 at 3 d [2]: > 133 µM
